{"source": "paper PMC2910436", "about": "(Cell, 2010)", "key": {"BDH2 (DHRS6)": {"target": "BDH2 (DHRS6) (Mus musculus, UniProt Q8JZV9)", "sequence (Q8JZV9 whole entry)": "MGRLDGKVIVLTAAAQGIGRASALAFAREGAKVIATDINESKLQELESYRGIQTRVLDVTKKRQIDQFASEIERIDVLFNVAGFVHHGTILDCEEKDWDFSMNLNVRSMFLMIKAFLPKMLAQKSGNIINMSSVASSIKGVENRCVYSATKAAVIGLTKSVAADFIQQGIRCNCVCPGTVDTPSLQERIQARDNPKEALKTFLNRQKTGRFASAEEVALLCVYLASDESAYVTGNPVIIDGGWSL", "assay": "NADH formation at […] nm", "format": "biochemical", "conditions": "co-substrate 2,3-diDHBA"}, "EntA": {"target": "EntA (Escherichia coli, UniProt P15047)", "sequence (P15047 whole entry)": "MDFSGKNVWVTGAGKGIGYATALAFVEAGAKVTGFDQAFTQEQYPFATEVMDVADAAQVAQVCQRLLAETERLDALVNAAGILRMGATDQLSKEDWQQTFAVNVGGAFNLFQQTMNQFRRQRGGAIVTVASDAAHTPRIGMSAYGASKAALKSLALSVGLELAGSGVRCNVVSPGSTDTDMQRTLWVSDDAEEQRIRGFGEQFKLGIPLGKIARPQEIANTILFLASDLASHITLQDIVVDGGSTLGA", "assay": "NADH formation at […] nm", "format": "biochemical", "conditions": "co-substrate 2,3-diDHBA"}}}
{"smiles": "NC(=O)c1ccc[n+]([C@@H]2O[C@H](COP(=O)(O)OP(=O)(O)OC[C@H]3O[C@@H](n4cnc5c(N)ncnc54)[C@H](O)[C@@H]3O)[C@@H](O)[C@H]2O)c1", "note": "[NAD^+]", "values": [{"measurement": "NADH formation at 340 nm", "setting": "BDH2 (DHRS6)", "value": "wild-type EntA and BDH2 proteins, but not their mutant derivatives, catalyzed the conversion of NAD"}, {"measurement": "NADH formation at 340 nm", "setting": "EntA", "value": "wild-type EntA and BDH2 proteins, but not their mutant derivatives, catalyzed the conversion of NAD"}]}
